The IC50 is the midpoint of a concentration-inhibition curve. By AC50 is commonly meant the midpoint of the concentration-response curve, whichever way the signal moves.

For one experiment, the system named is MYB. Briefly: HiBiT protein abundance assay, MYB. Type of experiment: cell-based, human. The conditions noted are these: Homo sapiens, K562, 24 h, Table 13A, modified K562 cells. The procedure, abridged:
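K562 cells with endogenous HiBiT-tagged target were treated 24 h at 37 °C with compound (10-point 3-fold dilution, top 10 μM final, DMSO ≤0.25%). Lytic LgBiT luminescence was normalized to unmodified K562 (baseline) and DMSO-treated tagged cells; IC50 interpolated at 50% from four-parameter logistic fit.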

Another experiment concerns HTT. The experiment is described as follows: Splicing RT-qPCR assay, HTT mRNA canonical junction (CJ) and alternative junction (AJ). Type of experiment: cell-based, human. The note with it: Homo sapiens; for AC50: increase in AJ mRNA. The procedure, abridged:
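Cells: A673 (DMEM/10% FBS) or K562 (IMDM/10% FBS). Dose: 11-pt 3-fold, top 10 uM final, ≤0.25% DMSO, 24 h, 37 °C. Readout: RT-qPCR of CJ/AJ exon junctions, ΔΔCt vs housekeeper and DMSO, RQ to % response.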
(In general: Quantitative PCR measures a nucleic acid by following its amplification.)

Setting [1] is: 24 h, A673 or K562 cells, 24 hours treatment, RT-qPCR.
The mark [2] stands for this setting: RT-qPCR panel, canonical junction mRNA, compound concentration having 50% response in CJ decrease, read-out: HTT IC50 (decrease in CJ mRNA levels).
Setting [3] is: 24 h, decrease in CJ mRNA, A673 or K562 cells, 24 hours treatment, RT-qPCR, read-out: HTT CJ IC50.

Like-named read-outs stand apart in the source and are kept apart here. Some results are limits rather than exact numbers.

As to `CN(c1ccc(-c2cc(F)c(-c3cn[nH]c3)c3cn[nH]c23)nn1)[C@@H]1C[C@H]2CC(F)(F)[C@@H](C1)N2` (stereo in doubt) [Compound 378, 6,6-difluoro-N-{6-[5-fluoro-4-(1H-pyrazol-4-yl)-1H-indazol-7-yl]pyridazin-3-yl}-N-methyl-8-azabicyclo[3.2.1]octan-3-amine], the concentration for half-maximal inhibition (IC50) was 100 to 1000 nM with MYB and < 100 nM in the experiment on HTT (setting [2]). Also, the AC50 with HTT (setting [1]) was < 100 nM.

Consider `CN(c1ccc(-c2ccc(-c3cn[nH]c3)c3ncsc23)nn1)[C@@H]1C[C@H]2CC(F)(F)[C@@H](C1)N2` (stereo in doubt) [Compound 379, 6,6-difluoro-N-methyl-N-{6-[4-(1H-pyrazol-4-yl)-1,3-benzothiazol-7-yl]pyridazin-3-yl}-8-azabicyclo [3.2.1]octan-3-amine], for which the IC50 in the experiment on MYB was 100 to 1000 nM; with HTT (setting [2]), < 100 nM. In addition, the AC50 with HTT (setting [1]) was < 100 nM.

In the case of `CN(c1ccc(-c2ccc(-c3cn[nH]c3)c3cn[nH]c23)nn1)[C@@H]1C[C@H]2CC[C@@H](C1)N2` [Compound 104], the IC50 in the experiment on MYB, in the experiment on HTT (setting [3]) and in the experiment on HTT (setting [2]) was 100 to 1000 nM in each case. The AC50 with HTT (setting [1]) fell in the range of 1000 to 10000 nM.

As to `CN(c1ccc(-c2ccc(-n3cccn3)c3cn[nH]c23)nn1)[C@@H]1C[C@H]2CC[C@@H](C1)N2` [Compound 105], the IC50 in the experiment with MYB and in the experiment on HTT (setting [2]) was < 100 nM each time. In addition, the AC50 with HTT (setting [1]) was in the range of 100 to 1000 nM.

For `CN(c1ccc(-c2ccc(-c3cn[nH]c3)c3ncsc23)nn1)C1CC(C)(C)NC(C)(C)C1` [Compound 132], the IC50 in the experiment with MYB, in the experiment with HTT (setting [3]) and in the experiment on HTT (setting [2]) was 100 to 1000 nM each time. In the experiment on HTT (setting [1]), this molecule had an AC50 of 100 to 1000 nM.

As for `CN(c1ccc(-c2ccc(-c3cn[nH]c3)c3cn[nH]c23)nn1)C1CC(C)(C)NC(C)(C)C1` [Compound 137], the IC50 with MYB, in the experiment with HTT (setting [3]) and in the experiment on HTT (setting [2]) was 100 to 1000 nM each time. This molecule also showed an AC50 in the experiment on HTT (setting [1]) of 100 to 1000 nM.

Take `CN(c1ccc(-c2ccc(-c3ccc(=O)n(C)c3)c3scnc23)nn1)C1CC(C)(C)NC(C)(C)C1` [Compound 178]: the IC50 with MYB is 1000 to 10000 nM; with HTT (setting [3]) it was > 10000 nM; in the experiment with HTT (setting [2]) it was > 10000 nM. The AC50 in the experiment on HTT (setting [1]) is > 10000 nM.

With `CC1(C)CC(Oc2ccc(-c3ccc(-c4cn[nH]c4)c4ncsc34)nn2)CCN1` (centres unmarked) [Compound 182], the IC50 was in the range of 100 to 1000 nM in the experiment on MYB, 1000 to 10000 nM with HTT (setting [3]) and 1000 to 10000 nM in the experiment on HTT (setting [2]). The AC50 in the experiment with HTT (setting [1]) lay in the range of 1000 to 10000 nM.

Regarding `c1nc2c(-c3cn[nH]c3)ccc(-c3ccc(OC4CCNCC4)nn3)c2s1` [Compound 183], the IC50 in the experiment on MYB, with HTT (setting [3]) and with HTT (setting [2]) was 100 to 1000 nM throughout. The AC50 in the experiment on HTT (setting [1]) was in the range of 100 to 1000 nM.

`c1nc2c(-c3cn[nH]c3)ccc(-c3ccc(O[C@@H]4C[C@H]5CC[C@@H](C4)N5)nn3)c2s1` [Compound 184]: the IC50 in the experiment on MYB, in the experiment with HTT (setting [3]) and in the experiment on HTT (setting [2]) was 100 to 1000 nM throughout. The AC50 with HTT (setting [1]) was < 100 nM.

Consider `CC1(C)CC(Nc2ccc(-c3ccc(-c4cn[nH]c4)c4ncsc34)nn2)CC(C)(C)N1` [Compound 186], for which the IC50 in the experiment on MYB is 100 to 1000 nM; in the experiment with HTT (setting [2]), < 100 nM. Further, the AC50 in the experiment on HTT (setting [1]) is < 100 nM.

On to `c1nc2c(-c3cn[nH]c3)ccc(-c3ccc(N[C@@H]4C[C@H]5CC[C@@H](C4)N5)nn3)c2s1` [Compound 202], for which the IC50 in the experiment on MYB was 100 to 1000 nM; with HTT (setting [2]) it was < 100 nM. In the experiment with HTT (setting [1]), the AC50 is < 100 nM.

Take `CCN(c1ccc(C2=CC=C(c3cn[nH]c3)C3N=CSC23)nn1)[C@@H]1C[C@H]2CC[C@@H](C1)N2` (some centres unmarked) [Compound 203]: the results for the IC50 in the experiment with MYB, in the experiment on HTT (setting [3]) and in the experiment with HTT (setting [2]) were < 100 nM, 100 to 1000 nM and 100 to 1000 nM, respectively. Also, the AC50 in the experiment with HTT (setting [1]) was in the range of 100 to 1000 nM.

In the case of `CN(c1ccc(-c2ccc(-c3cn[nH]c3)c3ncsc23)nn1)[C@H]1C[C@]2(C)CC[C@](C)(C1)N2` [Compound 204], the IC50 in the experiment with MYB and with HTT (setting [2]) was < 100 nM each time. For the same molecule, the AC50 with HTT (setting [1]) was < 100 nM.

As for `[2H]C([2H])([2H])N(c1ccc(-c2ccc(-c3cn[nH]c3)c3ncsc23)nn1)[C@@H]1C[C@H]2CC[C@@H](C1)N2` [Compound 210], the IC50 in the experiment on MYB and in the experiment with HTT (setting [2]) was < 100 nM in each case. Further, in the experiment with HTT (setting [1]), the AC50 is < 100 nM.

With `CN(c1ccc(-c2ccc(-c3cn[nH]c3)c3ncsc23)nn1)[C@@H]1C[C@H]2CC[C@@H](C1)N2` [Compound 213], the IC50 in the experiment on MYB and in the experiment on HTT (setting [2]) was < 100 nM throughout. Besides, the AC50 with HTT (setting [1]) was < 100 nM.

Regarding `c1nc2c(-c3cn[nH]c3)ccc(-c3ccc(N[C@@H]4C[C@H]5CCC[C@@H](C4)N5)nn3)c2s1` [Compound 215], the IC50 in the experiment with MYB and in the experiment with HTT (setting [2]) was < 100 nM in each case. Also, the AC50 with HTT (setting [1]) was < 100 nM.

With `Fc1cc(-c2ccc(O[C@@H]3C[C@H]4CC[C@@H](C3)N4)nn2)c2[nH]ncc2c1-c1cn[nH]c1` [Compound 216], the IC50 in the experiment on MYB and with HTT (setting [2]) was < 100 nM throughout. In addition, the AC50 in the experiment with HTT (setting [1]) was < 100 nM.

As for `CN(c1ccc(-c2ccc(-c3cn[nH]c3)c3ncsc23)nn1)[C@@H]1C[C@H]2CCC[C@@H](C1)N2` [Compound 226], the IC50 with MYB and in the experiment with HTT (setting [2]) was < 100 nM in each case. In addition, the AC50 in the experiment with HTT (setting [1]) is < 100 nM.

Take `[2H]C([2H])([2H])N(c1ccc(-c2ccc(-c3cn[nH]c3)c3ncsc23)nn1)[C@@H]1C[C@H]2CCC[C@@H](C1)N2` [Compound 227]: the IC50 with MYB and with HTT (setting [2]) was < 100 nM in each case. In the experiment on HTT (setting [1]), the AC50 was < 100 nM.

For `CCN(c1ccc(-c2ccc(-c3cn[nH]c3)c3ncsc23)nn1)[C@@H]1C[C@H]2CCC[C@@H](C1)N2` [Compound 228], the IC50 with MYB and in the experiment on HTT (setting [2]) was < 100 nM throughout. In the experiment with HTT (setting [1]), this molecule showed an AC50 of 100 to 1000 nM.

`CN(c1ccc(-c2ccc(-c3cnn(C)c3)c3cn[nH]c23)nn1)C1CCNCC1` [Compound 242]: the IC50 is 1000 to 10000 nM with MYB, > 10000 nM with HTT (setting [3]) and > 10000 nM in the experiment with HTT (setting [2]). In addition, the AC50 with HTT (setting [1]) was > 10000 nM.

Regarding `CN(c1ccc(-c2cc(F)c(-c3cnn(C)c3)c3cn[nH]c23)nn1)[C@@H]1C[C@H]2CC[C@@H](C1)N2` [Compound 291], the IC50 in the experiment with MYB and in the experiment on HTT (setting [2]) was < 100 nM throughout. Also, the AC50 with HTT (setting [1]) is < 100 nM.

Take `c1n[nH]cc1-c1ccc(-c2ccc(N[C@@H]3C[C@H]4CCC[C@@H](C3)N4)nn2)c2[nH]ncc12` [Compound 294]: the IC50 with MYB, with HTT (setting [3]) and in the experiment on HTT (setting [2]) was 100 to 1000 nM in each case. In addition, the AC50 in the experiment on HTT (setting [1]) is 100 to 1000 nM.

Take `CC1(C)CC(Oc2ccc(-c3cc(F)c(-c4cn[nH]c4)c4cn[nH]c34)nn2)CC(C)(C)N1` [Compound 307]: the IC50 in the experiment on MYB, in the experiment on HTT (setting [3]) and in the experiment on HTT (setting [2]) was 100 to 1000 nM throughout. In the experiment on HTT (setting [1]), this molecule displayed an AC50 of 100 to 1000 nM.

`c1nc2c(-c3cn[nH]c3)ccc(-c3ccc(N(C4CC4)C4C[C@H]5CCC[C@@H](C4)N5)nn3)c2s1` (some centres unmarked) [Compound 311]: the IC50 with MYB was 100 to 1000 nM; in the experiment with HTT (setting [2]) it was < 100 nM. The AC50 in the experiment with HTT (setting [1]) is < 100 nM.

The values above are taken from US20240368163A1, “COMPOUNDS AND METHODS FOR MODULATING SPLICING” (REMIX THERAPEUTICS INC., priority 2021, published 2024).
